Measured values from patent US4642314A, “Antiulcer compounds” (Nisshin Flour Milling Co., Ltd., priority 1984, dated 1987).

What was measured:
[1] = acute toxicity (LD50), intraperitoneal route in mice; type: in vivo; settings: mouse, in vivo, ip
[2] = tested on: acetic acid-induced ulcer; experiment: Acetic acid-induced ulcer (Curative test); type: in vivo, rat (male SD rats); settings: Table 2; rat, 0.05 ml of 15% acetic acid underneath the serosa; lesion area on 14th day
Method: (§1) In the case of reserpine-induced ulcer, the assay was performed according to the description in "Arch. Int. Pharmacodym. Ther. 147,113 (1964)", and in the case of acetic acid-induced ulcer, the assay was performed according to the method described in "Jap. J. Pharmac. 19,418 (1969)", by inducing experimental ulcer in rat and evaluating the effect thereon of the compounds tested.
Groups of rats, each consisting of 6 male SD rats weighing 150-200 g were used. The stomach of ether-anesthesized rat was exposed and while taking acre not to injure blood vessels, 0.05 ml of 15% aqueous acetic acid solution was injected underneath the serosa. On the 14th day, the rats were killed with chloroform, the stomach taken out and the area of the infected lesion measured.
The curative ratio was calculated using the above equation: [formula]

reserpine-induced ulcer = experiment: Reserpine-induced ulcer (Preventive test); type: in vivo, rat (male SD rats); settings: Table 1; rat, 100 mg/kg oral, 30 min before reserpine 15 mg/kg i.p.; evaluated at 18 h; read-out: Preventive effect (preventive ratio)
Method: as §1
Groups of rats, each consisting of 6 male SD rats weighing 150-200 g were used. After 24 hours' fasting, a sample compound was orally administered to the rat at the dose of 100 mg/kg body weight, and 30 minutes after the administration, reserpine was intraperitoneally injected at the dose of 15 mg/kg body weight. Eighteen hours after the administration, the rats were killed with chloroform. The stomach was taken out, and severity of the hemorrhaging lesion was evaluated according to the method as above ("Arch. Int. Pharmacodym. Ther. 147,113 (1964)).
The preventive ratio was calculated using the following equation, [formula] wherein the control animals were intraperitoneally given reserpine only, at the dose of 15 mg/kg body weight.

| Structure (SMILES) | LD50 ([1]; Table 2) [mg/kg] | Curative effect (curative ratio) [2] | LD50 ([1]; Table 1) [mg/kg] | inhibition in vivo at 100 mg/kg (reserpine-induced ulcer) [%] |
| --- | --- | --- | --- | --- |
| CCCCCCCCCCCCCCCCCC(=O)OC/C=C(\C)CCC[C@H](C)CCC[C@H](C)CCCC(C)C [Phytyl stearate] | > 4000 | + (10%-25%) |  |  |
| CC(C)=CCCC(C)CCCC(=O)Oc1c(C)c(C)c2c(c1C)CCC(C)(CCCC(C)CCCC(C)CCCC(C)C)O2 (stereo not drawn) [α-Tocopheryl citronellylacetate] |  |  | > 4000 | > 60 |
| CCCCCCCC/C=C\CCCCCCCC(=O)OCCC(C)CCCC(C)CCCC(C)CCCC(C)C (centres unmarked) [Dihydrophytyl oleate] |  |  | > 4000 | 10 to 40 |
| CC(C)=CCCC(C)=CCCC(C)=CCCC(=O)OCC=C(C)CCC=C(C)CCC=C(C)CCC=C(C)CCC=C(C)CCC=C(C)CCC=C(C)CCC=C(C)CCC=C(C)C [Solanesyl farnesylacetate] |  |  | > 4000 | 10 to 40 |
| CC(C)=CCCC(C)=CCCC(C)=CCCC(=O)OC/C=C(\C)CCC[C@H](C)CCC[C@H](C)CCCC(C)C [Phytyl farnesylacetate] |  |  | > 5000 | 10 to 40 |
| CC(C)=CCCC(C)=CCCC(C)=CCCC(C)=CCCC(C)=CCCC(C)=CCCC(C)=CCCC(C)=CCCC(C)=CCCC(C)=CCCC(=O)OC(C)C [Isopropyl decaprenylacetate] | > 4000 | + (10%-25%) |  |  |
| COC(=O)CCC=C(C)CCC=C(C)CCC=C(C)CCC=C(C)CCC=C(C)CCC=C(C)CCC=C(C)CCC=C(C)CCC=C(C)C [Methyl solanesylacetate] | > 4000 | ++ (25%-40%) |  |  |
| CCCCCCCCCCCCCCCCCC(=O)OCCC(C)CCCC(C)CCCC(C)CCCC(C)C (centres unmarked) [Dihydrophytyl stearate] |  |  | > 4000 | 10 to 40 |
| CC(C)=CCCC(C)=CCCC(=O)OCC=C(C)CCC=C(C)CCC=C(C)CCC=C(C)CCC=C(C)CCC=C(C)CCC=C(C)CCC=C(C)CCC=C(C)CCC=C(C)C [Decaprenyl geranylacetate] | > 5000 | + (10%-25%) |  |  |
| CC(C)=CCCC(C)=CCCC(C)=CCCC(C)=CCCC(C)=CCCC(C)=CCCC(C)=CCCC(C)=CCCC(C)=CCOC(=O)CCC=C(C)CCCC(C)CCCC(C)CCCC(C)C (centres unmarked) [Solanesyl phytylacetate] |  |  | > 4000 | 10 to 40 |
| CC(C)=CCCC(C)=CCCC(C)=CCCC(C)=CCCC(C)=CCCC(C)=CCCC(C)=CCCC(C)=CCCC(C)=CCCC(C)=CCCC(=O)Oc1c(C)c(C)c2c(c1C)CCC(C)(CCCC(C)CCCC(C)CCCC(C)C)O2 (stereo not drawn) [α-Tocopheryl decaprenylacetate] |  |  | > 4000 | 10 to 40 |
| C/C(=C\CCC(=O)OC/C=C(\C)CCC[C@H](C)CCC[C@H](C)CCCC(C)C)CCC[C@H](C)CCC[C@H](C)CCCC(C)C [Phytyl phytylacetate] |  |  | > 5000 | 40 to 60 |
| CC(C)=CCCC(C)=CCCC(C)=CCCC(C)=CCCC(C)=CCCC(C)=CCCC(C)=CCCC(C)=CCCC(C)=CCCC(C)=CCO [Decaprenol] | > 4000 | +++ (40%-) |  |  |
| C/C(=C\CCC(=O)OC(C)C)CCC[C@H](C)CCC[C@H](C)CCCC(C)C [Isopropyl phytylacetate] |  |  | > 5000 | 10 to 40 |
| CCCCCCCC/C=C/CCCCCCCCCCCC(=O)OCC=C(C)CCC=C(C)CCC=C(C)CCC=C(C)CCC=C(C)CCC=C(C)CCC=C(C)CCC=C(C)CCC=C(C)CCC=C(C)C [Decaprenyl brassidate] | > 4000 | ++ (25%-40%) |  |  |
| COC(=O)CC/C=C(\C)CCC[C@H](C)CCC[C@H](C)CCCC(C)C [Methyl phytlacetate, Methyl phytylacetate] |  |  | > 5000 | 10 to 40 |

| Structure (SMILES) | LD50 ([1]; Table 2) [mg/kg] | Curative effect (curative ratio) [2] | LD50 ([1]; Table 1) [mg/kg] | inhibition in vivo at 100 mg/kg (reserpine-induced ulcer) [%] |
| --- | --- | --- | --- | --- |
| CC(C)=CCCC(C)=CCCC(C)=CCCC(C)=CCCC(C)=CCCC(C)=CCCC(C)=CCCC(C)=CCCC(C)=CCCC(=O)Oc1c(C)c(C)c2c(c1C)CCC(C)(CCCC(C)CCCC(C)CCCC(C)C)O2 (stereo not drawn) [α-Tocopheryl solanesylacetate] |  |  | > 4000 | 40 to 60 |
| CCCCCCCCCCC/C=C\CCCCC(=O)OCC=C(C)CCC=C(C)CCC=C(C)CCC=C(C)CCC=C(C)CCC=C(C)CCC=C(C)CCC=C(C)CCC=C(C)CCC=C(C)C [Decaprenyl petroselinate] | > 4000 | ++ (25%-40%) |  |  |
| CC(C)=CCCC(C)=CCCC(C)=CCCC(C)=CCCC(C)=CCCC(C)=CCCC(C)=CCCC(C)=CCCC(C)=CCCC(=O)OCC=C(C)CCC=C(C)CCC=C(C)CCC=C(C)CCC=C(C)CCC=C(C)CCC=C(C)CCC=C(C)CCC=C(C)CCC=C(C)C [Decaprenyl solanesylacetate] | > 5000 | + (10%-25%) |  |  |
| CCCCCCCC/C=C/CCCCCCCC(=O)OC/C=C(\C)CCC[C@H](C)CCC[C@H](C)CCCC(C)C [Phytyl elaidate] | > 4000 | + (10%-25%) |  |  |
| CCOC(=O)CCC=C(C)CCC=C(C)CCC=C(C)CCC=C(C)CCC=C(C)CCC=C(C)CCC=C(C)CCC=C(C)CCC=C(C)CCC=C(C)C [Ethyl decaprenylacetate] | > 4000 | +++ (40%-) |  |  |
| CCCCCCCCC1OC1CCCCCCCC(=O)OC/C=C(\C)CCC[C@H](C)CCC[C@H](C)CCCC(C)C (some centres unmarked) [Phytyl 9,10-epoxystearate] | > 5000 | + (10%-25%) |  |  |
| CCCCC/C=C\C/C=C\CCCCCCCC(=O)OC/C=C(\C)CCC[C@H](C)CCC[C@H](C)CCCC(C)C [Phytyl linoleate] | > 4000 | + (10%-25%) |  |  |
| CCCCCCCCCCC/C=C\CCCCC(=O)OC/C=C(\C)CCC[C@H](C)CCC[C@H](C)CCCC(C)C [Phytyl petroselinate] | > 5000 | ++ (25%-40%) |  |  |
| CC(C)=CCCC(C)=CCCC(C)=CCCC(=O)OCC=C(C)CCC=C(C)CCC=C(C)CCC=C(C)CCC=C(C)CCC=C(C)CCC=C(C)CCC=C(C)CCC=C(C)CCC=C(C)C [Decaprenyl farnesylacetate] | > 5000 | + (10%-25%) |  |  |
| CC(C)=CCCC(C)=CCCC(C)=CCCC(C)=CCCC(C)=CCCC(C)=CCCC(C)=CCCC(C)=CCCC(C)=CCCC(=O)O [Solanesylacetic acid] | > 4000 | + (10%-25%) |  |  |
| COC(=O)CCC=C(C)CCC=C(C)CCC=C(C)CCC=C(C)CCC=C(C)CCC=C(C)CCC=C(C)CCC=C(C)CCC=C(C)CCC=C(C)C [Methyl decaprenylacetate] | > 4000 | ++ (25%-40%) |  |  |
| CC(C)=CCCC(C)=CCCC(=O)OCC=C(C)CCC=C(C)CCC=C(C)CCC=C(C)CCC=C(C)CCC=C(C)CCC=C(C)CCC=C(C)CCC=C(C)C [Solanesyl geranylacetate] | > 4000 | + (10%-25%) |  |  |
| CCCCCC[C@@H](O)C/C=C\CCCCCCCC(=O)OC/C=C(\C)CCC[C@H](C)CCC[C@H](C)CCCC(C)C [Phytyl ricinoleate] | > 5000 | + (10%-25%) |  |  |
| CC(C)=CCCC(C)=CCCC(C)=CCCC(C)=CCCC(C)=CCCC(C)=CCCC(C)=CCCC(C)=CCCC(C)=CCCC(C)=CCCC(=O)OCCC(C)C [Isoamyl decaprenylacetate] | > 4000 | + (10%-25%) |  |  |
| CCOC(=O)CCC=C(C)CCC=C(C)CCC=C(C)CCC=C(C)CCC=C(C)CCC=C(C)CCC=C(C)CCC=C(C)CCC=C(C)C [Ethyl solanesylacetate] | > 4000 | ++ (25%-40%) |  |  |
